The test system of the assay is representative oral bacteria S. mutans, F. nucleatum, V. parvula, A. naslundii, P. gingivitis. The assay can be described thus: in vitro test Minimal Inhibitory Concentration (MIC). To be noted: no numbers given. The class given is cell-based. The source says: The compositions of the present invention comprise at least one active compound found in an extract of magnolia. As referred to here, such an “extract” of magnolia is an extract from dried cortex, or bark, of a plant from the Magnoliaceae family, such as Magnolia officinalis, (hereinafter “magnolia”) or a synthetic or semi-synthetic equivalent of such an extract or an active component thereof. […] In other embodiments, the antibacterial ingredient comprises an extract of magnolia. […] It should be noted that any plant from the Magnoliaceae family is suitable for the present invention and may be used in alternate embodiments, preferably such that the extract comprises an antimicrobially effective concentration of a compound selected from the group consisting of magnolol, honokiol, tetrahydromagnolol, tetrahydrohonokiol, and mixtures thereof.
In the case of `C=CCc1ccc(O)c(-c2ccc(O)c(CC=C)c2)c1` [honokiol], the “bactericidal properties against representative oral bacteria” value is recorded as “demonstrated bactericidal properties”.
The entry for `C=CCc1ccc(O)c(-c2cc(CC=C)ccc2O)c1` [magnolol] is “demonstrated bactericidal properties”; for `CCCc1ccc(O)c(-c2ccc(O)c(CCC)c2)c1` [tetrahydrohonokiol] it is “demonstrated bactericidal properties”.
The value for `CCCc1ccc(O)c(-c2cc(CCC)ccc2O)c1` [tetrahydromagnolol] was “demonstrated bactericidal properties”.

The record behind these values is patent US20060127329A1, “Tartar control oral care composition containing extract of magnolia” (Colgate-Palmolive Company, priority 2004, published 2006).
